For orientation: IC50 means the point on the concentration scale where inhibition reaches its midpoint.

The subject of one assay is HCT116 WT cells. Put plainly: HCT116 WT cell line proliferation (CellTiter-Glo cell viability, 6 days). The note with it: Homo sapiens, HCT-116, 144 h, HCT116 WT (parent) cells, 6 days of treatment, CellTiter-Glo cell viability; read-out: HCT-116 WT IC50. It counts as cell-based. In outline:
(§1)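 Isogenic HCT116 pair (both MTAP alleles knocked out vs parent) in RPMI 1640 + 10% FBS, seeded overnight at 37° C, 5% CO2, then exposed 6 days to 8- or 9-point 1:3 dilutions from 1 or 10 μM. CellTiter-Glo luminescence; IC50 from sigmoidal fit, Hill slope fixed −1, top 100%, or 4-parameter logistic.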

In the next assay the test system is HCT116 MTAP null cells. Put plainly: HCT116 MTAP null cell line proliferation (CellTiter-Glo cell viability, 6 days). It is filed as cell-based. The note with it: HCT116 MTAP null cells, 6 days of treatment, CellTiter-Glo cell viability, read-out: HCT-116 MTAP null IC50. Put shortly: as §1

Like-named read-outs stand apart in the source and are kept apart here. Bounds are passed on as bounds.

Regarding `CCOc1ccc([C@@H]2COC[C@H](C)N2C(=O)c2cc3c4c(c(N)nc3cc2F)COC4)nn1` (racemic) [Example 327, (4-amino-7-fluoro-1,3-dihydrofuro[3,4-c]quinolin-8-yl)((3R,5S)-3-(6-ethoxy-3-pyridazinyl)-5-methyl-4-morpholinyl)methanone and (4-amino-7-fluoro-1,3-dihydrofuro[3,4-c]quinolin-8-yl)((3S,5R)-3-(6-ethoxy-3-pyridazinyl)-5-methyl-4-morpholinyl)methanone], the IC50 with HCT116 WT cells came out at 2400 nM; with HCT116 MTAP null cells (HCT116-MTAP null, 144 h), 43 nM.
`CCOc1ccc([C@@H]2COCCN2C(=O)c2ccc3nc(N)c4c(c3c2)CO[C@@H]4C)nn1` (racemic) [Example 393, ((3R)-4-amino-3-methyl-1,3-dihydrofuro[3,4-c]quinolin-8-yl)((3R)-3-(6-ethoxy-3-pyridazinyl)-4-morpholinyl)methanone and ((3R)-4-amino-3-methyl-1,3-dihydrofuro[3,4-c]quinolin-8-yl)((3S)-3-(6-ethoxy-3-pyridazinyl)-4-morpholinyl)methanone]: the IC50 is more than 50000 nM in the assay with HCT116 WT cells and 971 nM in the assay with HCT116 MTAP null cells (HCT116-MTAP null, 144 h).
The matching figures for `Cn1ncc2c3cc(C(=O)N4CCOCC4c4ccc(OC(F)(F)F)cc4)ccc3nc(N)c21` (racemic) [Example 498, (4-amino-3-methyl-3H-pyrazolo[3,4-c]quinolin-8-yl)((3R)-3-(4-(trifluoromethoxy)phenyl)-4-morpholinyl)methanone and (4-amino-3-methyl-3H-pyrazolo[3,4-c]quinolin-8-yl)((3S)-3-(4-(trifluoromethoxy)phenyl)-4-morpholinyl)methanone]: 21500 nM and 711 nM.
As for `Nc1nc2ccc(C(=O)N3CCOC[C@@H]3c3ccc(C(F)(F)F)cc3)cc2n2ccnc12` [Example 403, (4-aminoimidazo[1,2-a]quinoxalin-8-yl)((3S)-3-(4-(trifluoromethyl)phenyl)-4-morpholinyl)methanone], the IC50 was 673 nM in the assay with HCT116 WT cells and 765 nM in the assay with HCT116 MTAP null cells (HCT116-MTAP null, 144 h).
For `N#Cc1ccc([C@@H]2COCCN2C(=O)c2ccc3nc(N)c4c(c3c2)COC4)nc1` (single isomer, unassigned) [Example 576], in that order: more than 10000 nM and more than 1000 nM.
In the case of `Cc1cc2nc(N)c3cnn(C)c3c2cc1C(=O)N1CCOC[C@@H]1c1ccc(C(F)(F)F)cc1` [Example 413, (4-amino-1,7-dimethyl-1H-pyrazolo[4,3-c]quinolin-8-yl)((3S)-3-(4-(trifluoromethyl)phenyl)-4-morpholinyl)methanone], the IC50 in the assay on HCT116 WT cells came to 413 nM; in the assay with HCT116 MTAP null cells (HCT116-MTAP null, 144 h), 22 nM.
For `C[C@@H]1CN(C(=O)c2ccc3nc(N)c4c(c3c2)COC4)[C@H](c2ccc(C(F)(F)F)cn2)CO1` (single isomer, unassigned) [Example 574], in that order: more than 10000 nM and more than 1000 nM.
For `Cn1ncc2c(N)nc3ccc(C(=O)N4CCOC[C@@H]4c4ccc(C(F)(F)C(F)(F)F)cc4)cc3c21` [Example 409, (4-amino-1-methyl-1H-pyrazolo[4,3-c]quinolin-8-yl)((3S)-3-(4-(pentafluoroethyl)phenyl)-4-morpholinyl)methanone], in that order: 1670 nM and 29 nM.
On to `Nc1nc2cnc(C(=O)N3CCNC[C@@H]3c3ccc(C(F)(F)F)cc3)cc2c2c1COC2` (single isomer, unassigned) [Example 596, (4-amino-1,3-dihydrofuro[3,4-c][1,7]naphthyridin-8-yl)((2S)-2-(4-(trifluoromethyl)phenyl)-1-piperazinyl)methanone or (4-amino-1,3-dihydrofuro[3,4-c][1,7]naphthyridin-8-yl)((2R)-2-(4-(trifluoromethyl)phenyl)-1-piperazinyl)methanone], for which the IC50 is more than 10000 nM in the assay on HCT116 WT cells and 580 nM in the assay on HCT116 MTAP null cells (HCT116-MTAP null, 144 h).
As for `Nc1nc2cnc(C(=O)N3CCC(F)(F)C[C@@H]3c3ccc(C(F)(F)F)cc3)cc2c2c1COC2` (single isomer, unassigned) [Example 598], the 50% inhibitory concentration (IC50) in the assay with HCT116 WT cells was more than 10000 nM; in the assay on HCT116 MTAP null cells (HCT116-MTAP null, 144 h) it was 807 nM.
Take `Cn1ncc2c(N)nc3cc(F)c(C(=O)N4CCOC[C@@H]4c4ccc(C(F)(F)C(F)(F)F)cc4)cc3c21` [Example 411, (4-amino-7-fluoro-1-methyl-1H-pyrazolo[4,3-c]quinolin-8-yl)((3S)-3-(4-(pentafluoroethyl)phenyl)-4-morpholinyl)methanone]: the IC50 is 352 nM in the assay on HCT116 WT cells and 8 nM in the assay on HCT116 MTAP null cells (HCT116-MTAP null, 144 h).
In the case of `Cc1ccc([C@@H]2COCCN2C(=O)c2ccc3nc(N)c4c(c3c2)COC4)cn1` (single isomer, unassigned) [Example 605], the 50% inhibitory concentration (IC50) was more than 10000 nM in the assay with HCT116 WT cells and more than 1000 nM with HCT116 MTAP null cells (HCT116-MTAP null, 144 h).
For `Nc1nc2cc(F)c(C(=O)N3CCOC[C@@H]3c3ncc(Br)cc3F)cc2c2c1COC2` (single isomer, unassigned) [Example 460], in that order: 1810 nM and 30 nM.
The matching figures for `C[C@H]1OCc2c1c(N)nc1ccc(C(=O)N3CC(c4ccccc4)C4COCCC43)cc21` (stereo partly drawn) [Example 397, ((3R)-4-amino-3-methyl-1,3-dihydrofuro[3,4-c]quinolin-8-yl)(3-phenylhexahydropyrano[4,3-b]pyrrol-1(4H)-yl)methanone]: 32000 nM and 380 nM.
For `Nc1nc2cc(F)c(C(=O)N3CCOC[C@@H]3c3ccc(C(F)(F)F)cc3)cc2c2c1CCO2` [Example 407, (4-amino-7-fluoro-2,3-dihydrofuro[3,2-c]quinolin-8-yl)((3S)-3-(4-(trifluoromethyl)phenyl)-4-morpholinyl)methanone], in that order: 4210 nM and 416 nM.
For the molecule `Cn1ncc2c(N)nc3cc(F)c(C(=O)N4CC[C@@H](Oc5ccc(C(F)(F)F)cn5)C4)cc3c21` (single isomer, unassigned) [Example 474], the values for the IC50 in the assay on HCT116 WT cells and in the assay on HCT116 MTAP null cells were 6420 nM and 842 nM, respectively.
Regarding `Nc1nc2ccc(C(=O)N3CCOC[C@H]3c3ccc(C(F)(F)F)cc3)cc2c2ccsc12` (single isomer, unassigned) [Example 487], the 50% inhibitory concentration (IC50) was more than 10000 nM in the assay with HCT116 WT cells and more than 1000 nM in the assay with HCT116 MTAP null cells (HCT116-MTAP null, 144 h).
For `C[C@H]1OCc2c1c(N)nc1ccc(C(=O)N3CCOC[C@@H]3c3ccc(S(F)(F)(F)(F)F)cc3)cc21` [Example 416, ((3R)-4-amino-3-methyl-1,3-dihydrofuro[3,4-c]quinolin-8-yl)((3S)-3-(4-(pentafluoro-lambda~6~-sulfanyl)phenyl)-4-morpholinyl)methanone], in that order: 867 nM and 33 nM.
`Cn1ncc2c(N)nc3cc(F)c(C(=O)N4CC[C@H](Cc5ccc(C(F)(F)F)cc5)C4)cc3c21` (single isomer, unassigned) [Example 470]: the IC50 stood at 5300 nM in the assay on HCT116 WT cells and 340 nM in the assay on HCT116 MTAP null cells (HCT116-MTAP null, 144 h).
Regarding `Cn1ncc2c(N)nc3cc(F)c(C(=O)N4CCOC[C@H]4c4ccc(C(F)(F)F)cn4)cc3c21` [Example 559, (4-amino-7-fluoro-1-methyl-1H-pyrazolo[4,3-c]quinolin-8-yl)((3R)-3-(5-(trifluoromethyl)-2-pyridinyl)-4-morpholinyl)methanone], the IC50 in the assay with HCT116 WT cells worked out at 12000 nM; with HCT116 MTAP null cells (HCT116-MTAP null, 144 h) it was 575 nM.
The matching figures for `C[C@@H]1COC[C@H](c2ccc(OC(F)(F)F)cc2)N1C(=O)c1ccc2nc(N)c3c(c2c1)CO[C@@H]3C` [Example 536, ((3R)-4-amino-3-methyl-1,3-dihydrofuro[3,4-c]quinolin-8-yl)((3R,5S)-3-methyl-5-(4-(trifluoromethoxy)phenyl)-4-morpholinyl)methanone]: 646 nM and 19 nM.
The matching figures for `Nc1nc2ccc(C(=O)N3CCOC[C@@H]3c3ccc(CC(F)(F)F)cc3)cc2c2c1COC2` (single isomer, unassigned) [Example 603]: 10200 nM and 420 nM.
For `CCOc1ccc([C@@H]2COC[C@H](C)N2C(=O)c2ccc3nc(N)c4c(c3c2)COC4)nn1` (racemic) [Example 319, (4-amino-1,3-dihydrofuro[3,4-c]quinolin-8-yl)((3R,5S)-3-(6-ethoxy-3-pyridazinyl)-5-methyl-4-morpholinyl)methanone and (4-amino-1,3-dihydrofuro[3,4-c]quinolin-8-yl)((3S,5R)-3-(6-ethoxy-3-pyridazinyl)-5-methyl-4-morpholinyl)methanone], in that order: 5580 nM and 145 nM.
As for `Cc1n[nH]c2c1c(N)nc1cnc(C(=O)N3CCOC[C@@H]3c3ccc(C(F)(F)F)cc3)cc12` [Example 406, (4-amino-3-methyl-1H-pyrazolo[4,3-c][1,7]naphthyridin-8-yl)((3S)-3-(4-(trifluoromethyl)phenyl)-4-morpholinyl)methanone], the IC50 in the assay on HCT116 WT cells was found to be 5640 nM; with HCT116 MTAP null cells (HCT116-MTAP null, 144 h) it was 155 nM.
With `Nc1nc2cnc(C(=O)N3CCOC[C@@H]3c3ccc(C(F)(F)C(F)(F)F)cc3)cc2c2c1COC2` [Example 511], the IC50 in the assay on HCT116 WT cells came out at 1130 nM; in the assay with HCT116 MTAP null cells (HCT116-MTAP null, 144 h), 43 nM.
As for `Nc1nc2cnc(C(=O)N3CCOC[C@@H]3c3cc(Cl)c(Cl)s3)cc2c2c1COC2` (single isomer, unassigned) [Example 618], the half-inhibitory concentration (IC50) in the assay with HCT116 WT cells was more than 10000 nM; in the assay with HCT116 MTAP null cells (HCT116-MTAP null, 144 h), 300 nM.
For `Nc1nc2cnc(C(=O)N3CCOCC3c3ccc(CC(F)(F)F)cc3)cc2c2c1COC2` (racemic) [Example 509, (4-amino-1,3-dihydrofuro[3,4-c][1,7]naphthyridin-8-yl)((3R)-3-(4-(2,2,2-trifluoroethyl)phenyl)-4-morpholinyl)methanone and (4-amino-1,3-dihydrofuro[3,4-c][1,7]naphthyridin-8-yl)((3S)-3-(4-(2,2,2-trifluoroethyl)phenyl)-4-morpholinyl)methanone], in that order: 10600 nM and 325 nM.

The record behind these values is patent US11845760B2, “PRMT5 inhibitors” (AMGEN INC., priority 2020, dated 2023).
